The assay deals with T1, Recombinant human FMS dephosphorylated with lambda phosphatase (dephospho-rhFMS) (Homo sapiens, UniProt P07333).
T1 sequence (P07333 538-972): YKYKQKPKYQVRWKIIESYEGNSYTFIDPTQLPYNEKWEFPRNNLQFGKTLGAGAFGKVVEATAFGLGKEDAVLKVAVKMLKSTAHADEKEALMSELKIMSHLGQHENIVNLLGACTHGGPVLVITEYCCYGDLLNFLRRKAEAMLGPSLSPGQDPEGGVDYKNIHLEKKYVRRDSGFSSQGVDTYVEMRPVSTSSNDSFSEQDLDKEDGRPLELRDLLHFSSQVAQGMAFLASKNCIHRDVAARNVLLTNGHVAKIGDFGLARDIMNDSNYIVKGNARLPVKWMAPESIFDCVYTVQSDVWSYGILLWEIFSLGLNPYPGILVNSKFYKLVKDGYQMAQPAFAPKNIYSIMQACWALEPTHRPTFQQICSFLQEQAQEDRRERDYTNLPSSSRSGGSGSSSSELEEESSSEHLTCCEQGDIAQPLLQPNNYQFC
Kind of assay: In vitro kinase assay, recombinant dephospho-FMS (LANCE Ultra TR-FRET). As to conditions: 100 μM ATP. Type of assay: biochemical. Here is the method: Enzyme inhibition studies were performed using LANCE® Ultra TR-FRET assay technology. Briefly, 0.03 μg/mL dephospho-rhFMS and 100 nM ULightTM-poly GT (4:1) (PerkinElmer) were mixed and incubated for 40 min at 25°C in 10 μL of reaction mixture containing 100 μM ATP, 15 mM tris (hydroxymethyl) aminomethane (Tris (pH 7.5)), 0.01% (v/v) Tween 20, 5 mM MgCl2, 2 mM dithiothreitol and various concentrations of the test compound. […] By referring to the TR-FRET signals of positive (no inhibitor) and negative (EDTA was added before the reaction was started) control wells, the percent inhibition of each well was calculated and the half-maximal inhibitory concentration (IC50) value was determined using a four-parameter sigmoidal equation. The assay of MET and VEGFR2 kinase activity was performed as described previously.
(In general: In TR-FRET formats the signal depends on donor and acceptor labels being close together.)

For `CNC(=O)c1cc2c(Oc3ccc(NC(=S)NC(=O)Cc4ccccc4)cc3F)ccnc2cc1OC` [TAS-115, 4-[2-fluoro-4-[[[(2-phenylacetyl)amino]thioxomethyl]amino]-phenoxy] -7-methoxy-N-methyl-6-quinolinecarboxamide], the 50% inhibitory concentration (IC50) (usually the concentration that gives 50% inhibition) was determined as 15 nM.

For the origin of these results see publication PMC5063576, “High Potency VEGFRs/MET/FMS Triple Blockade by TAS-115 Concomitantly Suppresses Tumor Progression and Bone Destruction in Tumor-Induced Bone Disease Model with Lung Carcinoma Cells” (PLoS ONE, 2016).
